Experimental data: patent US20070049564A1 (Wyeth, priority 2005, published 2007)
In brackets after ≈: the same amount, converted by molar mass. Like-named read-outs stand apart in the source and are kept apart here.

Assays:
[1] = test system: E. coli GC 2236; assay: MIC, broth microdilution; conditions: Escherichia coli
Method: Antimicrobial susceptibility testing. The in vitro activities of the antibiotics are determined by the broth microdilution method as recommended by the National Committee for Clinical Laboratory Standards (NCCLS) (1). Mueller-Hinton II broth (MHBII)(BBL Cockeysville, Md.) is the medium employed in the testing procedures. Microtiter plates containing serial dilutions of each antimicrobial agent are inoculated with each organism to yield the appropriate density (10^5 CFU/ml) in a 100 μl final volume. The plates are incubated for 18-22 hours at 35° C. in ambient air. […] Standard Pharmacological Test Procedures
Presented in Tables I-XIII are representative compounds of Formula I which were evaluated against a panel of 40 selected gram-positive and gram-negative bacteria strains by pre-incubation in water, mouse serum or human serum. Representative compounds were first incubated in mouse serum for an hour prior to the in vitro testing against a panel of selected gram-positive and gram-negative bacteria strains. All compounds were also pre-incubated in water for an hour prior to testing as control. Representative compounds of Formula I were incubated in human serum prior to MIC determination.

[2] = test system: E. coli GC 2235; assay: MIC, broth microdilution; conditions: Escherichia coli
[3] = test system: E. coli GC 2233; assay: MIC, broth microdilution; conditions: Escherichia coli
[4] = test system: E. coli GC 2270; assay: MIC, broth microdilution; conditions: Escherichia coli
[5] = test system: E. coli GC 2271; assay: MIC, broth microdilution; conditions: Escherichia coli
[6] = test system: E. coli GC 4559; assay: MIC, broth microdilution; conditions: Escherichia coli
[7] = test system: E. coli GC 4560; assay: MIC, broth microdilution; conditions: Escherichia coli
[8] = test system: E. coli GC 6465; assay: MIC, broth microdilution; conditions: Escherichia coli
[9] = test system: E. coli GC 2203; assay: MIC, broth microdilution; conditions: Escherichia coli
[10] = test system: E. coli GC 1073; assay: MIC, broth microdilution; conditions: Escherichia coli
[11] = test system: P. aeruginosa GC 2214; assay: MIC, broth microdilution; conditions: Pseudomonas aeruginosa
[12] = test system: S. aureus GC 6467; assay: MIC, broth microdilution; conditions: Staphylococcus aureus
[13] = test system: S. aureus GC 4536; assay: MIC, broth microdilution; conditions: Staphylococcus aureus
[14] = test system: S. aureus GC 6469; assay: MIC, broth microdilution; conditions: Staphylococcus aureus
[15] = test system: E. faecalis GC 4555; assay: MIC, broth microdilution; conditions: Enterococcus faecalis
[16] = test system: E. faecalis GC 2265; assay: MIC, broth microdilution; conditions: Enterococcus faecalis
[17] = test system: E. faecalis GC 2242; assay: MIC, broth microdilution; conditions: Enterococcus faecalis
[18] = test system: S. agalactiae GC 4564; assay: MIC, broth microdilution; conditions: Streptococcus agalactiae
[19] = test system: E. coli; assay: Range of MIC for E. coli strains; conditions: Escherichia coli
[20] = test system: Staph.; assay: Range of MIC for Staph. strains, including MRSA; conditions: Staphylococcus aureus

`CC(C)CC(=O)OCOC(=O)N(CC(=O)Nc1cc(N(C)C)c2c(c1O)C(=O)C1=C(O)[C@]3(O)C(=O)C(C(N)=O)=C(O)[C@@H](N(C)C)[C@@H]3C[C@@H]1C2)C(C)(C)C` [Example 53, ({[(2-{[(5aR,6aS,7S,10aS)-9-(aminocarbonyl)-4,7-bis(dimethylamino)-1,8,10a,11-tetrahydroxy-10,12-dioxo-5,5a,6,6a,7,10,10a,12-octahydrotetracen-2-yl]amino}-2-oxoethyl)(tert-butyl)amino]carbonyl}oxy)methyl 3-methylbutanoate] gave an MIC ([1]; GC2236, read-out: MINIMAL INHIBITORY CONCENTRATION MIC, Human Serum) of 16 µg/mL (≈ 21.5 µM), an MIC ([1]; GC2236, read-out: MINIMAL INHIBITORY CONCENTRATION MIC, Mouse Serum) of 1 µg/mL (≈ 1.34 µM) and an MIC ([1]; GC2236, read-out: MINIMAL INHIBITORY CONCENTRATION MIC, Water) of 32 µg/mL (≈ 43 µM). It also gave an MIC ([2]; GC2235, read-out: MINIMAL INHIBITORY CONCENTRATION MIC, Human Serum) of 8 µg/mL (≈ 10.8 µM), an MIC ([2]; GC2235, read-out: MINIMAL INHIBITORY CONCENTRATION MIC, Mouse Serum) of 0.5 µg/mL (≈ 0.672 µM) and an MIC ([2]; GC2235, read-out: MINIMAL INHIBITORY CONCENTRATION MIC, Water) of 32 µg/mL (≈ 43 µM). It also gave an MIC ([3]; GC2233, read-out: MINIMAL INHIBITORY CONCENTRATION MIC, Human Serum) of 16 µg/mL (≈ 21.5 µM), an MIC ([3]; GC2233, read-out: MINIMAL INHIBITORY CONCENTRATION MIC, Mouse Serum) of 1 µg/mL (≈ 1.34 µM) and an MIC ([3]; GC2233, read-out: MINIMAL INHIBITORY CONCENTRATION MIC, Water) of 32 µg/mL (≈ 43 µM). It also gave an MIC ([4]; GC2270, read-out: MINIMAL INHIBITORY CONCENTRATION MIC, Human Serum) of 8 µg/mL (≈ 10.8 µM), an MIC ([4]; GC2270, read-out: MINIMAL INHIBITORY CONCENTRATION MIC, Mouse Serum) of 1 µg/mL (≈ 1.34 µM) and an MIC ([4]; GC2270, read-out: MINIMAL INHIBITORY CONCENTRATION MIC, Water) of 32 µg/mL (≈ 43 µM). The MIC ([5]; GC2271, read-out: MINIMAL INHIBITORY CONCENTRATION MIC, Human Serum) was 8 µg/mL (≈ 10.8 µM), the MIC ([5]; GC2271, read-out: MINIMAL INHIBITORY CONCENTRATION MIC, Mouse Serum) was 0.5 µg/mL (≈ 0.672 µM) and the MIC ([5]; GC2271, read-out: MINIMAL INHIBITORY CONCENTRATION MIC, Water) was 16 µg/mL (≈ 21.5 µM). The MIC ([6]; GC4559, read-out: MINIMAL INHIBITORY CONCENTRATION MIC, Human Serum) was 16 µg/mL (≈ 21.5 µM), the MIC ([6]; GC4559, read-out: MINIMAL INHIBITORY CONCENTRATION MIC, Mouse Serum) was 1 µg/mL (≈ 1.34 µM) and the MIC ([6]; GC4559, read-out: MINIMAL INHIBITORY CONCENTRATION MIC, Water) was 32 µg/mL (≈ 43 µM). The MIC ([7]; GC4560, read-out: MINIMAL INHIBITORY CONCENTRATION MIC, Human Serum) was 2 µg/mL (≈ 2.69 µM), the MIC ([7]; GC4560, read-out: MINIMAL INHIBITORY CONCENTRATION MIC, Mouse Serum) was 0.5 µg/mL (≈ 0.672 µM) and the MIC ([7]; GC4560, read-out: MINIMAL INHIBITORY CONCENTRATION MIC, Water) was 2 µg/mL (≈ 2.69 µM). The MIC ([8]; GC6465, read-out: MINIMAL INHIBITORY CONCENTRATION MIC, Human Serum) was 32 µg/mL (≈ 43 µM), the MIC ([8]; GC6465, read-out: MINIMAL INHIBITORY CONCENTRATION MIC, Mouse Serum) was 4 µg/mL (≈ 5.38 µM) and the MIC ([8]; GC6465, read-out: MINIMAL INHIBITORY CONCENTRATION MIC, Water) was greater than 64 µg/mL. For the same compound, the MIC ([9]; GC2203, read-out: MINIMAL INHIBITORY CONCENTRATION MIC, Human Serum) was 16 µg/mL (≈ 21.5 µM), the MIC ([9]; GC2203, read-out: MINIMAL INHIBITORY CONCENTRATION MIC, Mouse Serum) was 1 µg/mL (≈ 1.34 µM) and the MIC ([9]; GC2203, read-out: MINIMAL INHIBITORY CONCENTRATION MIC, Water) was 32 µg/mL (≈ 43 µM). It also gave an MIC ([10]; GC1073, read-out: MINIMAL INHIBITORY CONCENTRATION MIC, Human Serum) of 16 µg/mL (≈ 21.5 µM), an MIC ([10]; GC1073, read-out: MINIMAL INHIBITORY CONCENTRATION MIC, Mouse Serum) of 1 µg/mL (≈ 1.34 µM) and an MIC ([10]; GC1073, read-out: MINIMAL INHIBITORY CONCENTRATION MIC, Water) of 32 µg/mL (≈ 43 µM). It also gave an MIC ([11]; GC2214, read-out: MINIMAL INHIBITORY CONCENTRATION MIC, Human Serum) greater than 64 µg/mL, an MIC ([11]; GC2214, read-out: MINIMAL INHIBITORY CONCENTRATION MIC, Mouse Serum) of 64 µg/mL (≈ 86 µM) and an MIC ([11]; GC2214, read-out: MINIMAL INHIBITORY CONCENTRATION MIC, Water) greater than 64 µg/mL. It also gave an MIC ([12]; GC6467, read-out: MINIMAL INHIBITORY CONCENTRATION MIC, Human Serum) of 1 µg/mL (≈ 1.34 µM), an MIC ([12]; GC6467, read-out: MINIMAL INHIBITORY CONCENTRATION MIC, Mouse Serum) of 1 µg/mL (≈ 1.34 µM) and an MIC ([12]; GC6467, read-out: MINIMAL INHIBITORY CONCENTRATION MIC, Water) of 2 µg/mL (≈ 2.69 µM). The MIC ([13]; GC4536, read-out: MINIMAL INHIBITORY CONCENTRATION MIC, Human Serum) was 0.5 µg/mL (≈ 0.672 µM), the MIC ([13]; GC4536, read-out: MINIMAL INHIBITORY CONCENTRATION MIC, Mouse Serum) was 0.25 µg/mL (≈ 0.336 µM) and the MIC ([13]; GC4536, read-out: MINIMAL INHIBITORY CONCENTRATION MIC, Water) was 1 µg/mL (≈ 1.34 µM). For the same compound, the MIC ([14]; GC6469, read-out: MINIMAL INHIBITORY CONCENTRATION MIC, Human Serum) was 1 µg/mL (≈ 1.34 µM), the MIC ([14]; GC6469, read-out: MINIMAL INHIBITORY CONCENTRATION MIC, Mouse Serum) was 1 µg/mL (≈ 1.34 µM) and the MIC ([14]; GC6469, read-out: MINIMAL INHIBITORY CONCENTRATION MIC, Water) was 2 µg/mL (≈ 2.69 µM). For the same compound, the MIC ([15]; GC4555, read-out: MINIMAL INHIBITORY CONCENTRATION MIC, Human Serum) was 2 µg/mL (≈ 2.69 µM), the MIC ([15]; GC4555, read-out: MINIMAL INHIBITORY CONCENTRATION MIC, Mouse Serum) was 0.5 µg/mL (≈ 0.672 µM) and the MIC ([15]; GC4555, read-out: MINIMAL INHIBITORY CONCENTRATION MIC, Water) was 2 µg/mL (≈ 2.69 µM). For the same compound, the MIC ([16]; GC2265, read-out: MINIMAL INHIBITORY CONCENTRATION MIC, Human Serum) was 0.5 µg/mL (≈ 0.672 µM), the MIC ([16]; GC2265, read-out: MINIMAL INHIBITORY CONCENTRATION MIC, Mouse Serum) was 1 µg/mL (≈ 1.34 µM) and the MIC ([16]; GC2265, read-out: MINIMAL INHIBITORY CONCENTRATION MIC, Water) was 4 µg/mL (≈ 5.38 µM). For the same compound, the MIC ([17]; GC2242, read-out: MINIMAL INHIBITORY CONCENTRATION MIC, Human Serum) was 2 µg/mL (≈ 2.69 µM), the MIC ([17]; GC2242, read-out: MINIMAL INHIBITORY CONCENTRATION MIC, Mouse Serum) was 0.5 µg/mL (≈ 0.672 µM) and the MIC ([17]; GC2242, read-out: MINIMAL INHIBITORY CONCENTRATION MIC, Water) was 2 µg/mL (≈ 2.69 µM). The MIC ([18]; GC4564, read-out: MINIMAL INHIBITORY CONCENTRATION MIC, Human Serum) was 0.5 µg/mL (≈ 0.672 µM), the MIC ([18]; GC4564, read-out: MINIMAL INHIBITORY CONCENTRATION MIC, Mouse Serum) was less than 0.06 µg/mL and the MIC ([18]; GC4564, read-out: MINIMAL INHIBITORY CONCENTRATION MIC, Water) was 0.5 µg/mL (≈ 0.672 µM). The MIC ([19]; 20 h, read-out: Range of MIC, E. coli (Mouse Serum)) was 0.25 to 1 µg/mL (≈ 0.336 to 1.34 µM), the MIC ([19]; read-out: Minimum inhibitory concentration (MIC), E. coli (Human Serum)) was 8 to 16 µg/mL (≈ 10.8 to 21.5 µM) and the MIC ([19]; read-out: Minimum inhibitory concentration (MIC), E. coli (water)) was 16 to 64 µg/mL (≈ 21.5 to 86 µM). For the same compound, the MIC ([19]; read-out: Range of MIC, E. coli (Water)) was 16 to 64 µg/mL (≈ 21.5 to 86 µM), the MIC ([20]; MRSA, read-out: Range of MIC, Staph (Mouse Serum)) was 0.25 to 1 µg/mL (≈ 0.336 to 1.34 µM) and the MIC ([20]; MRSA, read-out: Range of MIC, Staph (Water)) was 0.5 to 2 µg/mL (≈ 0.672 to 2.69 µM). For the same compound, the MIC ([20]; read-out: Minimum inhibitory concentration (MIC), Staph (Human Serum)) was 0.5 to 2 µg/mL (≈ 0.672 to 2.69 µM) and the MIC ([20]; read-out: Minimum inhibitory concentration (MIC), Staph (Water)) was 0.5 to 2 µg/mL (≈ 0.672 to 2.69 µM).
